The Km is the substrate concentration at which the rate is half of its maximum. As a reminder, the IC50 is the concentration at which inhibition is half-maximal.

Entries after “also recorded” stand apart in the source; their conditions may differ. Like-named read-outs stand apart in the source and are kept apart here.

The values that follow come from publication PMC2759276 (Bioorganic & medicinal chemistry, 2009).

Assay [1] addresses T1, VIM-2 (Escherichia coli, UniProt Q5U7L7). The assay can be described thus: VIM-2 CCF2 kinetic assay. It is filed as biochemical. To be noted: VIM-2, CCF2 format; SD of 3 replicates.
In assay [2] the target is T1, VIM-2. The format is biochemical. To be noted: for effect of absence of zinc in the assay buffer on potency: with vs without 50 μM ZnSO4.
In the next assay the target is IMP-1 (Serratia marcescens, UniProt P52699). Kind of assay: biochemical. The format is biochemical. To be noted: for inhibition at 56 µM: read-out: Max Inhibition @ Tested Concentration, IMP-1 Nitrocefin.
Sequence of IMP-1 (P52699 19-246 limits assumed): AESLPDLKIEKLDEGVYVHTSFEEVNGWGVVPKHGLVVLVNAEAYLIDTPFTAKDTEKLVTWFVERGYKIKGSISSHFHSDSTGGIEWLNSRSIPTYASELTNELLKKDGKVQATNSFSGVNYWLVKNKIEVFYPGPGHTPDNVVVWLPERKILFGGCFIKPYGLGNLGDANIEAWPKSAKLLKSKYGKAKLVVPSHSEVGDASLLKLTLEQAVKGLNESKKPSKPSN
Another assay addresses TEM-1 (Escherichia coli, UniProt P62593). The assay can be described thus: TEM-1 nitrocefin assay. It is filed as biochemical. To be noted: for inhibitory activity against TEM-1 (in words): highest concentration tested 25 μM; for inhibition at 25 µM: read-out: Max Inhibition @ Tested Concentration, TEM-1 Nitrocefin.
The next assay has as its target AmpC (Enterobacter cloacae, UniProt P05364). Kind of assay: AmpC nitrocefin assay. The format is biochemical, E.cloacae. To be noted: for inhibitory activity against AmpC (in words): highest concentration tested 25 μM; for inhibition at 25 µM: read-out: Max Inhibition @ Tested Concentration, AmpC Nitrocefin.
For assay [3], the system named is resistant E. coli (BL21/VIM-2). The assay can be described thus: Imipenem MIC potentiation by a single dose of inhibitor. To be noted: for Imipenem MIC @ 50 μM of compound: BL21+VIM-2; for potentiation of imipenem efficacy (in words): resistant E. coli (BL21/VIM-2). The format is cell-based.
Assay [4] deals with T1, VIM-2. It is filed as biochemical.
Assay [5] deals with T1, VIM-2. Kind of assay: VIM-2 FRET. The format is biochemical. To be noted: @ 36 μM.
Assay [6] relates to non-resistant (BL21) E. coli. Kind of assay: MIC assay, non-resistant strain. The format is cell-based.
Assay [7] relates to resistant (BL21/VIM-2) E. coli. It is filed as cell-based.
Another assay deals with BL21/VIM2 E. coli. The format is cell-based. To be noted: checkerboard microdilution. For orientation: In broth dilution the organism is exposed to a series of concentrations in liquid medium.
Assay [8] addresses T1, VIM-2. Kind of assay: Rapid dilution experiment.

Sequence of AmpC (P05364 21-381): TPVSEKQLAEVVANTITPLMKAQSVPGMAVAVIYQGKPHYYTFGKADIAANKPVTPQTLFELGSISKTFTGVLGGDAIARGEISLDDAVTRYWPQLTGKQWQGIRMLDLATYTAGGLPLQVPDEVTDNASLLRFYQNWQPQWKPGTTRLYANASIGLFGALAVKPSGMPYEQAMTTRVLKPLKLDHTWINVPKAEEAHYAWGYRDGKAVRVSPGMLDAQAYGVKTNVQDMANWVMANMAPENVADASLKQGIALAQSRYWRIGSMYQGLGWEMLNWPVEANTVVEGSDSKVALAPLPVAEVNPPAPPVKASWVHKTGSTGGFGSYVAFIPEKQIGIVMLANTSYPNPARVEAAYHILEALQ
Sequence of TEM-1 (P62593 24-286 limits assumed): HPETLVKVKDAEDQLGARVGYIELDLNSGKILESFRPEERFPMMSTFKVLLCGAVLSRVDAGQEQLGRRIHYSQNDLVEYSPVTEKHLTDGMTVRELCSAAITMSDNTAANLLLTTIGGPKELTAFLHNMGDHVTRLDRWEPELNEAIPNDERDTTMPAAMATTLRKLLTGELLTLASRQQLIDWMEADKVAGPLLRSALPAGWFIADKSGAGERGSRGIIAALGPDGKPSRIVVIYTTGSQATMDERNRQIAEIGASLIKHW

Turning to `O=C(CNC(=O)c1cc2cc(Cl)c(O)cc2oc1=O)N[C@@H]1C(=O)N2C(C(=O)O)=C(CSc3ccc4c(c3)C(=O)OC43c4ccc(O)cc4Oc4cc(O)ccc43)CS[C@H]12` [CCF2], on VIM-2 [1], the Km was found to be 21 ± 7 µM.
As for `O=C1c2c(O)ccc(O)c2C(=O)c2c(NCCNCCO)ccc(NCCNCCO)c21` [Mitoxantrone, 1,4-Dihydroxy-5,8-bis([2-([2-hydroxyethyl]amino)ethyl]amino)-9,10-anthracenedione], at VIM-2 [2], the “effect of absence of zinc in the assay buffer on potency” value (“effect of absence of zinc” below) is reported as “not significantly affected by the absence of zinc”. In addition, on IMP-1, the IC50 was over 56 µM, the “activity in the IMP-1 nitrocefin assay (in words)” value was “did not exhibit any inhibitory activity” and the inhibition at 56 µM amounted to 0%. On IMP-1 (listed as mitoxantrone), the “activity in the IMP-1 nitrocefin assay (in words)” value was “inactive at the range of concentrations tested”. Moreover, on TEM-1, the half-maximal inhibitory concentration (IC50) was over 25 µM, the “inhibitory activity against TEM-1 (in words)” value was “did not exhibit any inhibitory activity” and the inhibition at 25 µM is 0%. Besides, on AmpC, the IC50 is over 25 µM, the “inhibitory activity against AmpC (in words)” value was “did not exhibit any inhibitory activity” and the inhibition at 25 µM was determined as 0%. Further, in assay [3], the “Imipenem MIC @ 50 μM of compound” value was 0.2 µg/mL and the “potentiation of imipenem efficacy (in words)” value is reported as “completely reverse the effects of VIM-2 on imipenem potency; also recorded: potentiate imipenem efficacy”.
For `COCc1nn[nH]c1CNS(=O)(=O)c1ccc(I)cc1` [Compound 2, 4-Iodo-N-((4-(methoxymethyl)-1H-1,2,3-triazol-5-yl)methyl)benzenesulfonamide], at VIM-2 [4], the mechanism of inhibition result is given as “competitive inhibitors”. Besides, at VIM-2 [2], the “effect of absence of zinc” value is given as “not significantly affected by the absence of zinc; also recorded: independent of the concentration of zinc”. In addition, on IMP-1, the IC50 was over 56 µM, the “activity in the IMP-1 nitrocefin assay (in words)” value was “inactive” and the inhibition at 56 µM turned out to be 0%. Also, at TEM-1, the IC50 is over 25 µM and the inhibition at 25 µM amounted to 0%. Moreover, on AmpC, the IC50 was over 25 µM and the inhibition at 25 µM came out at 0%. Besides, the “Imipenem MIC @ 50 μM of compound” value in assay [3] was 1.9 µg/mL.
`C#CCCOCc1nn[nH]c1CNS(=O)(=O)c1ccc(I)cc1` [Compound 1, 4-Iodo-N-((4-((but-3-ynyloxy)methyl)-1H-1,2,3-triazol-5-yl)methyl)benzenesulfonamide]: the mechanism of inhibition result on VIM-2 [4] was “competitive inhibitors”. At VIM-2 [2], the “effect of absence of zinc” value was “not significantly affected by the absence of zinc; also recorded: independent of the concentration of zinc”. For the same compound, at IMP-1, the IC50 was over 56 µM, the “activity in the IMP-1 nitrocefin assay (in words)” value was “inactive” and the inhibition at 56 µM was 0%. In addition, at TEM-1, the IC50 is over 25 µM and the inhibition at 25 µM stood at 0%. Also, at AmpC, the IC50 was over 25 µM and the inhibition at 25 µM came to 0%. For the same compound, the “Imipenem MIC @ 50 μM of compound” value in [3] came to 1.9 µg/mL.
`O=C(O)c1cc[c]([Hg][Cl])cc1` [pCMB, 4-chloromercuribenzoic acid]: at VIM-2 [4], the mechanism of inhibition entry was “slowly reversible or irreversible inhibitor; also recorded: irreversible / slowly reversible”. Moreover, the “Max Inhibition @ Tested Concentration, VIM-2 (Nitrocefin)” value at VIM-2 [2] (@ 15 μM) is “NA ^(e) (80% @ 15 μM)”. In addition, on VIM-2 [2], the “effect of absence of zinc” value is on record as “not significantly affected by the absence of zinc”. The “Max Inhibition @ Tested Concentration, VIM-2 (CCF2)” value on VIM-2 [5] was “NA (83% @ 36 μM)”. Besides, on IMP-1, the “activity in the IMP-1 nitrocefin assay (in words)” value was “modest potency; also recorded: demonstrated potency”. The “Max Inhibition @ Tested Concentration, IMP-1 Nitrocefin” value at IMP-1 (@ 140 μM, 15 minutes of preincubation) is listed as “NA (82% @ 140 μM)”. Further, the “Max Inhibition @ Tested Concentration, TEM-1 Nitrocefin” value on TEM-1 (@ 25 μM) worked out at 0%. For the same compound, the “inhibitory activity against TEM-1 (in words)” value at TEM-1 is recorded as “no inhibitory activity”. Besides, the IC50 at TEM-1 (read-out: IC50 TEM-1 Nitrocefin) and on AmpC (read-out: IC50 AmpC Nitrocefin) was over 25 µM in each case. Also, the “Max Inhibition @ Tested Concentration, AmpC Nitrocefin” value at AmpC (@ 25 μM) amounted to 0%. Further, on AmpC, the “inhibitory activity against AmpC (in words)” value was “no inhibitory activity”. The “Compound MIC” value in [6] and in assay [7] was 17.9 µg/mL in each case. Moreover, the “Imipenem MIC @ 50 μM of compound” value in assay [3] came to 0.2 µg/mL. For the same compound, in [3], the “potentiation of imipenem efficacy (in words)” value was “completely reverse the effects of VIM-2 on imipenem potency; also recorded: potentiate imipenem efficacy”. The MIC alone in the assay on BL21/VIM2 E. coli was found to be 17.9 µg/mL. The “inhibition of VIM-2” value against VIM-2 [8] (24 μM, incubated 30 minutes at room temperature) amounted to 90%. For the same compound, the “recovery of VIM-2 activity after dilution” value on VIM-2 [8] (after 15 minutes, 1:100 dilution from 24 μM) was found to be 16.5%.
